Test results taken from patent publication US8410152B2 (Max-Planck-Gesellschaft zur Forderung der Wissenschaften e. …, priority 2006, dated 2013).

How the values were obtained:
uninduced N2A cells = format: cell-based; conditions: cell death as percent of LDH released into medium vs total LDH, compound 10 μM
Procedure: Neurotoxicity assay: Neurotoxicity was assessed using an LDH (lactate dehydrogenase) assay kit (Roche, Mannheim, Germany) according to the manufacturer's specifications. In the viability assay the aggregation inhibitor compound was added at a final concentration of 10 μM to uninduced N2A cells. The activity of LDH was measured spectrophotometrically at 492 nm. Cell death was calculated as percent of LDH released into medium, compared to total LDH obtained after total cell lysis.

tau construct K19 = tau construct K19 (Homo sapiens, UniProt P10636); assay: Thioflavine S (ThS) assay for aggregation of tau; format: biochemical; conditions: 10 μM tau construct K19, 2.5 μM heparin, ThS fluorescence; for DC50: read-out: DC50; for IC50: over night at 37° C., read-out: ID50 (the source's name)
tau construct K19, sequence (P10636 with tags, fused parts or gaps isoform P10636-2 limits assumed): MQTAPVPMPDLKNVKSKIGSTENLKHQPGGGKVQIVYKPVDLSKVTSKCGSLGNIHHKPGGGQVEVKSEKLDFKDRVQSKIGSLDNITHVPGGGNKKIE
Procedure: Thioflavine S (ThS) Assay for aggregation of tau: 10 μM of the tau construct K19 were incubated with compounds in a concentration range from 1 nM up to 200 μM in the presence of 2.5 μM heparin in 50 mM NH4Ac buffer over night at 37° C. After addition of 20 μM ThS the signal was measured at 521 nm (emission) at an excitation wavelength of 440 nm. The results of this assay are presented in the IC50 column and DC50 column of Table 1 below.

| SMILES | DC50 (tau construct K19) [µM] | IC50 (tau construct K19) [µM] | LDH (uninduced N2A cells) [%] |
| --- | --- | --- | --- |
| O=C(NNc1nc(-c2ccccc2)cs1)c1ccc(Cl)cc1 | > 200 | > 200 | 34.3 |
| O=C(NNc1nc(-c2ccccc2)cs1)c1cccnc1 [Comp. 1, N′-(4-Phenylthiazol-2-yl)nicotinohydrazide] | 1.7 | 17 | 56.8 |
| O=C(NNc1nc(-c2ccc(Br)cc2)cs1)c1ccc2ccccc2c1 [Comp. 3, N′-(4-(4-Bromophenyl)thiazol-2-yl)-2-naphthohydrazide] | 169 | > 200 | 4.2 |
| O=C(NNc1nc(-c2cc3ccccc3oc2=O)cs1)c1ccc2ccccc2c1 [Comp. 4, N′-(4-(2-Oxo-2H-chromen-3-yl)thiazol-2-yl)-2-naphthohydrazide] | 88 | > 200 | 15.7 |
| O=C(NNc1nc(-c2cc3ccccc3oc2=O)cs1)c1ccc(F)cc1 [Comp. 5, 4-Fluoro-N′-(4-(2-oxo-2H-chromen-3-yl)thiazol-2-yl)benzohydrazide] | > 200 | 47.2 | 8.6 |
| O=C(NNc1nc(-c2ccc([N+](=O)[O-])cc2)cs1)Nc1ccccc1 [Comp. 6] | 33.5 | 10.8 | 2.1 |
| [N-]=[N+]=Nc1ccc(-c2csc(NNC(=O)c3ccc(F)cc3)n2)cc1 [Comp. 14, N′-[4-(4-azidophenyl)-1,3-thiazol-2-yl]-4-fluorobenzohydrazide] | 1.3 | 4.7 | 42.5 |
| O=C(NNc1nc(-c2ccc([N+](=O)[O-])cc2)cs1)c1ccco1 [Comp. 17, N′-[4-(4-nitrophenyl)-1,3-thiazol-2-yl]-2-furohydrazide] | 0.8 | 6.3 | 4.9 |
| O=C(NNc1nc(-c2ccccc2)cs1)c1cccs1 [Comp. 22, N′-(4-phenyl-1,3-thiazol-2-yl)thiophene-2-carbohydrazide] | 35.5 | 25.3 | 14.8 |
| COc1cccc(-c2csc(NNC(=O)c3cccs3)n2)c1 [Comp. 23, N′-[4-(3-methoxyphenyl)-1,3-thiazol-2-yl]thiophene-2-carbohydrazide] | > 200 | 28.3 | 25.3 |
| O=C(NNc1nc(-c2cccc([N+](=O)[O-])c2)cs1)c1ccccc1Cl [Comp. 25, 2-chloro-N′-[4-(3-nitrophenyl)-1,3-thiazol-2-yl]benzohydrazide] | > 200 | 35.5 | 43.0 |
| COc1cccc(-c2csc(NNC(=O)c3ccc(Cl)cc3)n2)c1 [Comp. 27, 4-chloro-N′-[4-(3-methoxyphenyl)-1,3-thiazol-2-yl]benzohydrazide] | > 200 | 59.2 | 42.1 |
| O=C(NNc1nc(-c2ccc(Br)cc2)cs1)c1ccco1 [Comp. 28, N′-[4-(4-bromophenyl)-1,3-thiazol-2-yl]-2-furohydrazide] | 2 | 60.9 | 3.8 |
| O=C(NNc1nc(-c2cccs2)cs1)c1ccc(Cl)cc1 [Comp. 29, 4-chloro-N′-(4-thien-2-yl-1,3-thiazol-2-yl)benzohydrazide] | > 200 | 146 | 3.8 |
| O=C(NNc1nc(-c2ccc(Br)cc2)cs1)Nc1ccccc1 [Comp. 30, 2-[4-(4-bromophenyl)-1,3-thiazol-2-yl]-N-phenylhydrazinecarboxamide] | > 200 | 146 | 6.4 |
| O=C(NNc1nc(-c2ccc(F)cc2)cs1)c1ccc(Cl)cc1 [Comp. 31, 4-chloro-N′-[4-(4-fluorophenyl)-1,3-thiazol-2-yl]benzohydrazide] | > 200 | 184 | 56.1 |
| Cc1sc(NNC(=O)c2ccc(F)cc2)nc1-c1ccccc1 [Comp. 32, 4-fluoro-N′-(5-methyl-4-phenyl-1,3-thiazol-2-yl)benzohydrazide] | > 200 | 195 | 18.4 |
| O=C(NNc1nc(-c2cc3ccccc3oc2=O)cs1)c1ccc2c(c1)OCO2 [Comp. 33, N′-[4-(2-oxo-2H-chromen-3-yl)-1,3-thiazol-2-yl]-1,3-benzodioxole-5-carbohydrazide] | > 200 | > 200 | 2.0 |
| O=C(NNc1nc(-c2ccccc2)cs1)c1ccc(F)cc1 [Comp. 34, 4-fluoro-N′-(4-phenyl-1,3-thiazol-2-yl)benzohydrazide] | > 200 | > 200 | 2.6 |
| O=C(NNc1nc(-c2ccc(Cl)cc2)cs1)c1ccccc1 [Comp. 71, N′-[4-(4-chlorophenyl)-1,3-thiazol-2-yl]benzohydrazide] | > 200 | > 200 |  |
| O=C(NNc1nc(-c2ccc(Cl)cc2)cs1)c1ccccc1F [Comp. 72, N′-[4-(4-chlorophenyl)-1,3-thiazol-2-yl]-2-fluorobenzohydrazide] | > 200 | 101 |  |
| O=C(NNc1nc(-c2cccc([N+](=O)[O-])c2)cs1)c1ccccc1F [Comp. 73, 2-fluoro-N′-[4-(3-nitrophenyl)-1,3-thiazol-2-yl]benzohydrazide] | 38.5 | 17.5 |  |
| O=C(NNc1nc(-c2ccc(-c3ccccc3)cc2)cs1)c1ccccc1F [Comp. 74, N′-[4-(1,1′-biphenyl-4-yl)-1,3-thiazol-2-yl]-2-fluorobenzohydrazide] | 53.9 | 20.5 |  |
| CN(Nc1nc(-c2ccc([N+](=O)[O-])cc2)cs1)C(=O)c1ccc(-c2ccccc2)cc1 [Comp. 76, N-methyl-N′-[4-(4-nitrophenyl)-1,3-thiazol-2-yl]-1,1′-biphenyl-4-carbohydrazide] | 138 | 67.6 |  |

The next lines start with results.

| DC50 (tau construct K19) [µM] | IC50 (tau construct K19) [µM] | SMILES | LDH (uninduced N2A cells) [%] |
| --- | --- | --- | --- |
| 11.1 | 23.2 | O=C(NNc1nc(-c2cc3ccccc3oc2=O)cs1)c1cccnc1 [Comp. 2, N′-(4-(2-Oxo-2H-chromen-3-yl)thiazol-2-yl)nicotinohydrazide] | 15.4 |
| 0.7 | 3.1 | O=C(NNc1nc(-c2ccc([N+](=O)[O-])cc2)cs1)c1cccnc1 [Comp. 11, N′-[4-(4-nitrophenyl)-1,3-thiazol-2-yl]nicotinohydrazide] | 12.9 |
| 0.5 | 3.3 | O=C(NNc1nc(-c2ccc(Br)cc2)cs1)c1cccnc1 [Comp. 12, N′-[4-(4-bromophenyl)-1,3-thiazol-2-yl]nicotinohydrazide] | 13.6 |
| 0.7 | 4.9 | O=C(NNc1nc(-c2ccc(N3CCCC3)cc2)cs1)c1ccc(F)cc1 [Comp. 15, 4-fluoro-N′-[4-(4-pyrrolidin-1-ylphenyl)-1,3-thiazol-2-yl]benzohydrazide] | −1.1 |
| 1.5 | 5.8 | O=C(NNc1nc(-c2ccc(N3CCCC3)cc2)cs1)c1ccc2ccccc2c1 [Comp. 16, N′-[4-(4-pyrrolidin-1-ylphenyl)-1,3-thiazol-2-yl]-2-naphthohydrazide] | 15.3 |
| 0.9 | 6.9 | O=C(NNc1nc(-c2ccc([N+](=O)[O-])cc2)cs1)c1ccc(F)cc1 [Comp. 18, 4-fluoro-N′-[4-(4-nitrophenyl)-1,3-thiazol-2-yl]benzohydrazide] | 46.9 |
| 10.8 | 7.7 | Cc1sc(NNC(=O)c2ccc(Cl)cc2)nc1-c1cccc([N+](=O)[O-])c1 [Comp. 19, 4-chloro-N′-[5-methyl-4-(3-nitrophenyl)-1,3-thiazol-2-yl]benzohydrazide] | 47.4 |
| 0.4 | 13.6 | O=C(NNc1nc(-c2ccc([N+](=O)[O-])cc2)cs1)c1ccc2ccccc2c1 [Comp. 20, N′-(4-(4-Nitrophenyl)thiazol-2-yl)-2-naphthohydrazide] | 18.7 |
| 20.2 | 18 | O=C(NNc1nc(-c2ccc(Br)cc2)cs1)c1ccncc1 [Comp. 21, N′-[4-(4-bromophenyl)-1,3-thiazol-2-yl]isonicotinohydrazide] | 1.5 |
| 16.5 | 33.6 | O=C(NNc1nc(-c2ccccc2)cs1)c1ccc(F)cc1 [Comp. 24, 4-fluoro-N′-(4-phenyl-1,3-thiazol-2-yl)benzohydrazide] | 5.5 |
| 21.3 | 47.2 | O=C(NNc1nc(-c2cc3ccccc3o2)cs1)c1ccc(Cl)cc1 [Comp. 26, N′-[4-(1-benzofuran-2-yl)-1,3-thiazol-2-yl]-4-chlorobenzohydrazide] | −0.6 |
| 19.4 | 51.3 | COc1ccc(-c2csc(NNC(=O)c3ccccc3)n2)cc1 [Comp. 69, N′-[4-(4-methoxyphenyl)-1,3-thiazol-2-yl]benzohydrazide] |  |
| 30.5 | 20.4 | COc1ccc(-c2csc(NNC(=O)c3ccccc3F)n2)cc1 [Comp. 70, 2-fluoro-N′-[4-(4-methoxyphenyl)-1,3-thiazol-2-yl]benzohydrazide] |  |
| 17.7 | 10.9 | CN(C(=O)c1ccc(-c2ccccc2)cc1)N(C)c1nc(-c2ccc([N+](=O)[O-])cc2)cs1 [Comp. 77, N,N′-dimethyl-N′-[4-(4-nitrophenyl)-1,3-thiazol-2-yl]-1,1′-biphenyl-4-carbohydrazide] |  |
